Key:
[1] = system: P. falciparum 3D7 trophozoites; assay: Metabolomic fingerprint profiling LC-MS; format: cell-based, Plasmodium falciparum; design: UDP-D-glucose / ADP-D-glucose: unit not given here; settings: for Acetyllysine / N-acetyl-L-ornithine / N-carbamoyl-L-aspartate / NADPH / dAMP / dCMP / dTDP / dTMP / dTTP / dihydroorotate / orotate / DLH / DLS/SDL/SID / PD / PEE / PVNF / 3-phosphoglycerate / ADP-D-glucose / ATP / CDP / D-sedoheptulose-1/7-phosphate / FAD / GMP / NAD+ / NADP+ / Octoluse Bisphosphate / Pyroglutamic acid / UDP-D-glucose / UDP-D-glucuronate / UDP-N-acetyl-glucosamine / UDP / UMP / UTP / a-ketoglutarate / citrate/isocitrate / cytidine / dATP / dGMP/AMP / fumarate / glucose-1/6-phosphate / glycerate / guanine / guanosine / hypoxanthine / indole / inosine / nicotinate / ornithine / phosphoenolpyruvate / pyruvate / ribose-phosphate / sarcosine/alanine / sn-glycerol-3-phosphate / succinate/methylmalonic acid / uridine / xanthosine: S2 Table Metabolomics; for Acetyllysine: metabolite Acetyllysine; for N-acetyl-L-ornithine: metabolite N-acetyl-L-ornithine; for N-carbamoyl-L-aspartate: metabolite N-carbamoyl-L-aspartate; for NADPH: metabolite NADPH; for dAMP: metabolite dAMP; for dCMP: metabolite dCMP; for dTDP: metabolite dTDP; for dTMP: metabolite dTMP; for dTTP: metabolite dTTP; for dihydroorotate: metabolite dihydroorotate; for orotate: metabolite orotate; for DLH: peptide DLH; for DLS/SDL/SID: peptide DLS/SDL/SID; for PD: peptide PD; for PEE: peptide PEE; for PVNF: peptide PVNF; for 3-phosphoglycerate: metabolite 3-phosphoglycerate; for ADP-D-glucose: metabolite ADP-D-glucose; for ATP: metabolite ATP; for CDP: metabolite CDP; for CDP / D-sedoheptulose-1/7-phosphate / GMP / Octoluse Bisphosphate / UDP / UMP / UTP / citrate/isocitrate / dGMP/AMP / fumarate / glucose-1/6-phosphate / glycerate / guanine / guanosine / inosine / pyruvate / sarcosine/alanine / succinate/methylmalonic acid / uridine / xanthosine: change in metabolite level after compound treatment; for D-sedoheptulose-1/7-phosphate: metabolite D-sedoheptulose-1/7-phosphate; for FAD: metabolite FAD; for GMP: metabolite GMP; for NAD+: metabolite NAD+; for NADP+: metabolite NADP+; for Octoluse Bisphosphate: metabolite Octoluse Bisphosphate; for Pyroglutamic acid: metabolite Pyroglutamic acid; for UDP-D-glucose: metabolite UDP-D-glucose; for UDP-D-glucuronate: metabolite UDP-D-glucuronate; for UDP-N-acetyl-glucosamine: metabolite UDP-N-acetyl-glucosamine; for UDP: metabolite UDP; for UMP: metabolite UMP; for UTP: metabolite UTP; for a-ketoglutarate: metabolite a-ketoglutarate; for citrate/isocitrate: metabolite citrate/isocitrate; for cytidine: metabolite cytidine; for dATP: metabolite dATP; for dGMP/AMP: metabolite dGMP/AMP; for fumarate: metabolite fumarate; for glucose-1/6-phosphate: metabolite glucose-1/6-phosphate; for glycerate: metabolite glycerate; for guanine: metabolite guanine; for guanosine: metabolite guanosine; for hypoxanthine: metabolite hypoxanthine; for indole: metabolite indole; for inosine: metabolite inosine; for 2_3-Diphosphoglyceric acid / 4-phosphopantothenate / 6-phospho-D-gluconate / FMN / IMP / Pyrophosphate / Sedoheptoluse bisphosphate / cyclic-AMP / glutathione disulfide / lactate / myo-inositol: metabolite level change after treatment; for nicotinate: metabolite nicotinate; for ornithine: metabolite ornithine; for phosphoenolpyruvate: metabolite phosphoenolpyruvate; for pyruvate: metabolite pyruvate; for ribose-phosphate: metabolite ribose-phosphate; for sarcosine/alanine: metabolite sarcosine/alanine; for sn-glycerol-3-phosphate: metabolite sn-glycerol-3-phosphate; for succinate/methylmalonic acid: metabolite succinate/methylmalonic acid; for uridine: metabolite uridine; for xanthosine: metabolite xanthosine
P. falciparum = assay: EC50 listed in S2 Table Metabolomics (used to set the concentration tested); format: cell-based; settings: Plasmodium falciparum; EC50 used for Factor_XEC50 in metabolomics; read-out: EC50_nM

`CCOC(=O)c1cn(CC)c2cc(N3CCCCC3)c(F)cc2c1=O` [MMV665827] was tested, and the Acetyllysine [1] was 0.6167, the N-acetyl-L-ornithine [1] was 0.5501 and the N-carbamoyl-L-aspartate [1] was 4.792. For the same compound, the NADPH [1] was 0.6598, the dAMP [1] was 0.7737 and the dCMP [1] was 1.737. It also gave a dTDP [1] of 0.1707, a dTMP [1] of 0.8282 and a dTTP [1] of 0.03923. The dihydroorotate [1] was 4.825, the orotate [1] was -0.5812 and the DLH [1] was -0.7896. The DLS/SDL/SID [1] was 0.01567, the PD [1] was 0.7077 and the PEE [1] was -1.44. For the same compound, the PVNF [1] was -0.1312, the 3-phosphoglycerate [1] was -0.02186 and the ADP-D-glucose [1] was 0.2064. The ATP [1] was 0.6896, the CDP [1] was 0.1387 and the D-sedoheptulose-1/7-phosphate [1] was 0.4202. For the same compound, the FAD [1] was 0.7349, the GMP [1] was -0.6725 and the “NAD+” value [1] was 0.4401. For the same compound, the “NADP+” value [1] was 0.5706, the “Octoluse Bisphosphate” value [1] was 0.2411 and the Pyroglutamic acid [1] was -0.2796. For the same compound, the UDP-D-glucose [1] was 0.1953, the UDP-D-glucuronate [1] was -0.1324 and the UDP-N-acetyl-glucosamine [1] was 0.2567. For the same compound, the UDP [1] was 0.4721, the UMP [1] was -1.447 and the UTP [1] was -1.04. It also gave an a-ketoglutarate [1] of -0.2461, a citrate/isocitrate [1] of -1.463 and a cytidine [1] of 0.4678. The dATP [1] was 0.6493, the dGMP/AMP [1] was 0.07314 and the fumarate [1] was -0.2241. The glucose-1/6-phosphate [1] was 1.8807, the glycerate [1] was -0.09674 and the guanine [1] was 1.02. It also gave a guanosine [1] of 0.7998, a hypoxanthine [1] of -0.3352 and an indole [1] of -0.0107. The inosine [1] was 0.5749, the 2_3-Diphosphoglyceric acid [1] was 0.1079 and the 4-phosphopantothenate [1] was 0.2143. The 6-phospho-D-gluconate [1] was 0.3355, the FMN [1] was 0.4894 and the IMP [1] was 0.7697. It also gave a Pyrophosphate [1] of -1.117, a Sedoheptoluse bisphosphate [1] of 0.6312 and a cyclic-AMP [1] of 0.6768. For the same compound, the glutathione disulfide [1] was 0.6276, the lactate [1] was 1.255 and the myo-inositol [1] was 2.498. It also gave a nicotinate [1] of -0.197, an ornithine [1] of 0.8346 and a phosphoenolpyruvate [1] of -0.2956. It also gave a pyruvate [1] of 0.5345, a ribose-phosphate [1] of 0.3041 and a sarcosine/alanine [1] of 0.4367. For the same compound, the sn-glycerol-3-phosphate [1] was 0.2478, the succinate/methylmalonic acid [1] was -0.3191 and the uridine [1] was 0.6011. The xanthosine [1] was -0.8841 and the EC50 (P. falciparum) was 0.119 µM.
With `COc1ccc(C(C)=O)cc1N1C(=O)C2C(C1=O)C1(c3ccccc3)C(=O)C2(c2ccccc2)C(c2ccc(C)cc2)=C1c1ccc(C)cc1` (stereo not drawn) [MMV007695] the Acetyllysine [1] was -0.2737, the N-acetyl-L-ornithine [1] was -0.4583 and the N-carbamoyl-L-aspartate [1] was 0.3458. It also gave an NADPH [1] of 1.835, a dAMP [1] of 0.454 and a dCMP [1] of -0.0001746. For the same compound, the dTDP [1] was 0.6225, the dTMP [1] was 0.1739 and the dTTP [1] was 0.01162. It also gave a dihydroorotate [1] of -0.0741, an orotate [1] of 0.786 and a DLH [1] of 0.4365. The DLS/SDL/SID [1] was 0.2312, the PD [1] was -1.42 and the PEE [1] was 0.3408. The PVNF [1] was 0.2956, the 3-phosphoglycerate [1] was -0.5907 and the ADP-D-glucose [1] was 0.2728. It also gave an ATP [1] of 0.4735, a CDP [1] of 0.708 and a D-sedoheptulose-1/7-phosphate [1] of 1.674. For the same compound, the FAD [1] was 0.07228, the GMP [1] was -0.9101 and the “NAD+” value [1] was 0.2072. For the same compound, the “NADP+” value [1] was 0.5403, the “Octoluse Bisphosphate” value [1] was -1.5013 and the Pyroglutamic acid [1] was 0.5983. It also gave a UDP-D-glucose [1] of 0.2909, a UDP-D-glucuronate [1] of 0.7314 and a UDP-N-acetyl-glucosamine [1] of 0.05292. It also gave a UDP [1] of 0.6476, a UMP [1] of -1.868 and a UTP [1] of 0.1535. For the same compound, the a-ketoglutarate [1] was 0.5943, the citrate/isocitrate [1] was 1.421 and the cytidine [1] was 0.7161. It also gave a dATP [1] of 0.1897, a dGMP/AMP [1] of 0.2576 and a fumarate [1] of -0.8988. It also gave a glucose-1/6-phosphate [1] of -0.6568, a glycerate [1] of -0.4271 and a guanine [1] of 0.5906. It also gave a guanosine [1] of -0.9684, a hypoxanthine [1] of 0.7986 and an indole [1] of 0.2572. For the same compound, the inosine [1] was -0.5212, the 2_3-Diphosphoglyceric acid [1] was -0.9184 and the 4-phosphopantothenate [1] was -0.9898. It also gave a 6-phospho-D-gluconate [1] of -0.8607, an FMN [1] of -0.08531 and an IMP [1] of -0.684. The Pyrophosphate [1] was -1.54, the Sedoheptoluse bisphosphate [1] was -1.405 and the cyclic-AMP [1] was -0.504. For the same compound, the glutathione disulfide [1] was -0.8249, the lactate [1] was -1.404 and the myo-inositol [1] was -3.565. The nicotinate [1] was 1.458, the ornithine [1] was -0.113 and the phosphoenolpyruvate [1] was -0.01223. It also gave a pyruvate [1] of -0.001929, a ribose-phosphate [1] of -0.0001746 and a sarcosine/alanine [1] of -1.812. The sn-glycerol-3-phosphate [1] was -1.169, the succinate/methylmalonic acid [1] was 0.009176 and the uridine [1] was 0.3917. It also gave a xanthosine [1] of 0.304 and an EC50 (P. falciparum) of 0.179 µM.
`CCc1c(C)c(=N)c2ccccc2n1C` [MMV006278] was tested, and the Acetyllysine [1] was -0.2738, the N-acetyl-L-ornithine [1] was -0.3387 and the N-carbamoyl-L-aspartate [1] was 0.04339. The NADPH [1] was -0.1545, the dAMP [1] was -0.2592 and the dCMP [1] was 0.05199. For the same compound, the dTDP [1] was -0.2955, the dTMP [1] was -0.278 and the dTTP [1] was 0.1315. For the same compound, the dihydroorotate [1] was 0.1029, the orotate [1] was -0.07528 and the DLH [1] was 0.1151. It also gave a DLS/SDL/SID [1] of -0.1067, a PD [1] of -0.1923 and a PEE [1] of 0.09363. For the same compound, the PVNF [1] was -0.2186, the 3-phosphoglycerate [1] was -0.1758 and the ADP-D-glucose [1] was -0.3132. The ATP [1] was -0.07819, the CDP [1] was -0.1774 and the D-sedoheptulose-1/7-phosphate [1] was -0.2519. The FAD [1] was -0.07776, the GMP [1] was -0.3571 and the “NAD+” value [1] was -0.07608. The “NADP+” value [1] was -0.2182, the “Octoluse Bisphosphate” value [1] was -0.2383 and the Pyroglutamic acid [1] was -0.07564. For the same compound, the UDP-D-glucose [1] was -0.16, the UDP-D-glucuronate [1] was -0.1623 and the UDP-N-acetyl-glucosamine [1] was -0.2266. It also gave a UDP [1] of -0.2326, a UMP [1] of -0.3171 and a UTP [1] of 0.05042. It also gave an a-ketoglutarate [1] of 0.05252, a citrate/isocitrate [1] of 0.03563 and a cytidine [1] of -0.182. It also gave a dATP [1] of 0.1448, a dGMP/AMP [1] of -0.3534 and a fumarate [1] of -0.3107. For the same compound, the glucose-1/6-phosphate [1] was -0.535, the glycerate [1] was -0.4983 and the guanine [1] was -0.2094. It also gave a guanosine [1] of -0.1411, a hypoxanthine [1] of 0.04937 and an indole [1] of -0.04764. The inosine [1] was -0.3767, the 2_3-Diphosphoglyceric acid [1] was -0.2671 and the 4-phosphopantothenate [1] was -0.1093. The 6-phospho-D-gluconate [1] was -0.1749, the FMN [1] was 0.06658 and the IMP [1] was -0.1794. The Pyrophosphate [1] was -0.2417, the Sedoheptoluse bisphosphate [1] was -0.1437 and the cyclic-AMP [1] was -0.03098. The glutathione disulfide [1] was -0.1999, the lactate [1] was 0.04854 and the myo-inositol [1] was 0.07173. For the same compound, the nicotinate [1] was -0.02818, the ornithine [1] was 0.04171 and the phosphoenolpyruvate [1] was -0.1381. It also gave a pyruvate [1] of -0.06156, a ribose-phosphate [1] of 0.02401 and a sarcosine/alanine [1] of -0.2797. It also gave a sn-glycerol-3-phosphate [1] of -0.6565, a succinate/methylmalonic acid [1] of -0.7483 and a uridine [1] of -0.02002. The xanthosine [1] was -0.104 and the EC50 (P. falciparum) was 0.378 µM.

Reference: publication PMC4965013, “Open Source Drug Discovery with the Malaria Box Compound Collection for Neglected Diseases and Beyond” (PLoS Pathogens, 2016)
